# Experimental data as given in ChEMBL document CHEMBL1141930, “N-methylsansalvamide a peptide analogues. Potent new antitumor agents” (J Med Chem, 2005).
# Active and inactive are the calls of the source. No cut-off for these calls is given here. Where a SMILES comes first, the peptide text is derived from it. [ ]: non-standard residue; d: D form. NMePhe(4-Br) = CN[C@@H](Cc1ccc(Br)cc1)C(=O)O; Phe(4-Br) = N[C@@H](Cc1ccc(Br)cc1)C(=O)O; NMeF = CN[C@@H](Cc1ccccc1)C(=O)O; Hica(2S) = CC(C)C[C@H](O)C(=O)O; NMeL = CN[C@@H](CC(C)C)C(=O)O; NMeV = CN[C@H](C(=O)O)C(C)C
# Legend:
# [1] = tested on: WM-115; assay: Potency against human WM-115 cells; exhibited average potency; assay type: functional, cell-based
# [2] = tested on: PC-3; assay: Effect of N-methylation in PC-3 human prostate cancer cells; exhibited lowest activity; assay type: functional, cell-based
# [3] = tested on: MDA-MB-231; assay: Effect of N-methylation in MDA-MB-231 human […] cancer cells; exibit less potency; assay type: functional, cell-based
# [4] = tested on: MDA-MB-231; assay: Inhibitory activity against MDA-MB-231 cells; exhibited moderate activity; assay type: functional, cell-based; conditions: Homo sapiens
# [5] = Mean inhibitory concentration against cancer cell lines; assay type: functional, cell-based, Homo sapiens
# [6] = tested on: PC-3; assay: Effect of N-methylation in PC-3 human prostate cancer cells; assay type: functional, cell-based
# [7] = tested on: Cancer cell lines; assay: Inhibitory activity against AsPC-1 human pancreatic cancer cells; demonstarted good activity; assay type: functional, cell-based
# [8] = tested on: WM-115; assay: Concentration at which the compound exibit good activity WM-115 human melanoma cells; assay type: functional, cell-based
# [9] = tested on: Cancer cell lines; assay: Inhibitory activity against S2-013 human pancreatic cancer cells; demonstarted good activity; assay type: functional, cell-based
# [10] = tested on: MDA-MB-231; assay: Inhibitory activity against MDA-MB-231 human […] cancer cells; demonstarted good activity; assay type: functional, cell-based
# [11] = tested on: PC-3; assay: Inhibitory activity against PC-3 human prostate cancer cells; demonstarted good activity; assay type: functional, cell-based
# [12] = tested on: MDA-MB-231; assay: Effect of N-methylation in MDA-MB-231 human […] cancer cells; exibit high potency; assay type: functional, cell-based
# [13] = tested on: PC-3; assay: Effect of N-methylation in PC-3 human prostate cancer cells; exhibited more potency; assay type: functional, cell-based
# [14] = tested on: PC-3; assay: Concentration at which the compound exibit more potency against PC-3 human prostate cancer cells; assay type: functional, cell-based
# [15] = tested on: Cancer cell lines; assay: Concentration at which the compound exibit more potency agains AsPC-1 human pancreatic cancer cells; assay type: functional, cell-based
# [16] = tested on: MDA-MB-231; assay: Concentration at which the compound exibit more potency against MDA-MB-231 human […] cancer cells; assay type: functional, cell-based
# [17] = tested on: MDA-MB-231; assay: Inhibitory activity against MDA-MB-231 cells; demonstarted high activity; assay type: functional, cell-based; conditions: Homo sapiens
# [18] = tested on: PC-3; assay: Effective concentration against PC-3 human prostate cancer cells; assay type: functional, cell-based
# [19] = tested on: Cancer cell lines; assay: Potency exhibited by the compound against well-differentiated S2-013 human pancreatic cancer cell line; much more potent; assay type: functional, cell-based
smiles,measurement,setting,value
CC(C)C[C@@H]1NC(=O)[C@H](Cc2ccccc2)NC(=O)[C@H](CC(C)C)NC(=O)[C@H](C(C)C)NC(=O)[C@H](CC(C)C)NC1=O (cyclo(FLLVL)),Activity,[1],Active
same,Activity,[2],Not Very Active
same,Activity,[3],Potent
CC(C)C[C@@H]1NC(=O)[C@H](Cc2ccccc2)NC(=O)[C@H](CC(C)C)N(C)C(=O)[C@H](C(C)C)NC(=O)[C@H](CC(C)C)NC1=O (cyclo(FLLV[NMeL])),Activity,[4],Active
CC(C)C[C@@H]1NC(=O)[C@H](Cc2ccccc2)NC(=O)[C@H](CC(C)C)NC(=O)[C@H](C(C)C)N(C)C(=O)[C@H](CC(C)C)NC1=O (cyclo(FLL[NMeV]L)),Activity,[4],Active
CC(C)C[C@@H]1NC(=O)[C@H](C(C)C)NC(=O)[C@H](CC(C)C)OC(=O)[C@H](CC(C)C)NC(=O)[C@H](Cc2ccccc2)NC1=O (cyclo(FL[Hica(2S)]VL)),IC50,[5],27.4 µg/mL
CC(C)C[C@@H]1NC(=O)[C@H](C(C)C)NC(=O)[C@H](CC(C)C)N(C)C(=O)[C@H](CC(C)C)NC(=O)[C@H](Cc2ccccc2)NC1=O (cyclo(FL[NMeL]VL)),Activity,[3],Potent
CC(C)C[C@@H]1NC(=O)[C@H](C(C)C)NC(=O)[C@H](CC(C)C)NC(=O)[C@H](CC(C)C)N(C)C(=O)[C@H](Cc2ccccc2)NC1=O (cyclo(F[NMeL]LVL)),Activity,[6],Not Very Active
same,Activity,[3],Potent
CC(C)C[C@@H]1NC(=O)[C@H](CC(C)C)NC(=O)[C@H](Cc2ccccc2)N(C)C(=O)[C@H](CC(C)C)NC(=O)[C@H](C(C)C)NC1=O (cyclo([NMeF]LLVL)),Activity,[6],Not Very Active
same,Activity,[3],Potent
CC(C)C[C@@H]1NC(=O)[C@H](CC(C)C)NC(=O)[C@H](Cc2ccc(Br)cc2)N(C)C(=O)[C@H](CC(C)C)NC(=O)[C@H](C(C)C)NC1=O (cyclo([NMePhe(4-Br)]LLVL)),Activity,[7],Active
same,Concentration,[8],10 µM
same,Activity,[9],Active
same,Activity,[10],Active
same,Activity,[11],Active
CC(C)C[C@@H]1NC(=O)[C@H](Cc2ccc(Br)cc2)NC(=O)[C@H](CC(C)C)NC(=O)[C@H](C(C)C)NC(=O)[C@H](CC(C)C)NC1=O (cyclo([Phe(4-Br)]LLVL)),Activity,[12],Potent
same,Activity,[13],More potent
CC(C)C[C@@H]1NC(=O)[C@H](Cc2ccc(Br)cc2)NC(=O)[C@H](CC(C)C)N(C)C(=O)[C@H](C(C)C)NC(=O)[C@H](CC(C)C)NC1=O (cyclo([Phe(4-Br)]LLV[NMeL])),Concentration,[14],10 µM
same,Concentration,[8],10 µM
same,Activity,[9],Active
same,Concentration,[15],10 µM
same,Concentration,[16],10 µM
CC(C)C[C@@H]1NC(=O)[C@H](Cc2ccc(Br)cc2)NC(=O)[C@H](CC(C)C)NC(=O)[C@H](C(C)C)N(C)C(=O)[C@H](CC(C)C)NC1=O (cyclo([Phe(4-Br)]LL[NMeV]L)),Activity,[4],Active
CC(C)C[C@@H]1NC(=O)[C@H](C(C)C)NC(=O)[C@H](CC(C)C)N(C)C(=O)[C@H](CC(C)C)NC(=O)[C@H](Cc2ccc(Br)cc2)NC1=O (cyclo([Phe(4-Br)]L[NMeL]VL)),Activity,[6],Not Very Active
same,Activity,[3],Potent
same,Activity,[17],Active
CC(C)C[C@@H]1NC(=O)[C@H](C(C)C)NC(=O)[C@H](CC(C)C)NC(=O)[C@H](CC(C)C)N(C)C(=O)[C@H](Cc2ccc(Br)cc2)NC1=O (cyclo([Phe(4-Br)][NMeL]LVL)),EC50,[18],7.5 µM
same,Activity,[19],Active
same,Concentration,[14],10 µM
same,Activity,[7],Active
same,Concentration,[16],10 µM
